Experimental data taken from patent US20260115285A1, “MEDICAMENT FOR TREATMENT AND/OR PREVENTION OF CANCER” (TORAY INDUSTRIES, INC., priority 2022, published 2026).

System: human colon cancer cell line (HCT116)
Experiment: Example 4: THP-1-mediated phagocytic activity, anti-CAPRIN-1, anti-CD20 or anti-HER-2 antibody alone or with olaparib
Assay type: cell-based
Settings: 1×10^4 HCT116 cocultured 1 hour with 1×10^5 THP-1, antibody final concentration 1 μg/mL (1 μM); for combination HCT116 cultured 2 days with olaparib 20 μM beforehand; N=3
Description: The human-derived cancer cell used was a colon cancer cell line HCT116.
Each cancer cell line after the culture was dissociated with TrypLE Express (Thermo), and the cancer cells were stained by the addition of calcein-AM at a final concentration of 0.04 μg/mL and incubation at 37° C. for 10 minutes. […] Further, dead cells were stained with propidium iodide (PI) (final concentration: 0.1 μg/mL), followed by the measurement of fluorescence from the cells by flow cytometry. PI-positive dead cells were excluded from analysis. The human monocytic cells THP-1 recognize an antibody bound onto cancer cells and phagocytize the cancer cells. At that time, if the cancer cells have been stained with calcein-AM, the monocytic cells ingesting the cancer cells by phagocytosis also become positive to calcein-AM. Thus, the phagocytic activity in this evaluation system was calculated as the ratio (%) of APC-positive/calcein-AM-positive cells to the whole calcein-AM-positive population.

For “anti-CD20 antibody: anti-CD20 antibody (“Rituxan”) purchased from Chugai Pharmaceutical Co., Ltd.”, the “phagocytic activity against cancer cells” value was no more than 7%.
